In patent US8071507B2, “Plant growth regulating and fungicidal compositions” (Syngenta Crop Protection, Inc., priority 2005, dated 2011):

Key:
Assay type in all cases: in vivo
Rye = experiment: Plant growth regulation (PGR), pre-emergence, rye; settings: 14 days
Protocol: (§1) The compounds are sprayed with a vertical boom sprayer at the mentioned rates (ref. result-tables) pre-plant on the bare soil, then they are incorporated into the soil and the plants are seeded.

Oilseed Rape = experiment: Plant growth regulation (PGR), pre-emergence, oilseed rape; settings: 14 days
Protocol: as §1

Soybean = experiment: Plant growth regulation (PGR), pre-emergence, soybean; settings: 14 days
Protocol: as §1

Oat = experiment: Plant growth regulation (PGR), pre-emergence, oat; settings: 14 days
Protocol: as §1

Summer rape “Hybridol” = experiment: Plant growth regulation (PGR), post-emergence, summer rape; settings: 14 days after application
Protocol: (§2) The plants are seeded and grown in a greenhouse until Growth Stage 12 (2 leafs unfolded). Then the compounds/mixture of the compounds are sprayed with a vertical boom sprayer top over the leafs.

Wheat = experiment: Plant growth regulation (PGR), pre-emergence, wheat; settings: 14 days
Protocol: as §1

Barley = experiment: Plant growth regulation (PGR), pre-emergence, barley; settings: 14 days
Protocol: as §1

[1] = system: Winter rape “Colza d'hiver Aviso”; experiment: Plant growth regulation (PGR), post-emergence, winter rape; settings: 14 days after application
Protocol: as §2

Triticale = experiment: Plant growth regulation (PGR), pre-emergence, triticale; settings: 14 days
Protocol: as §1

CC(C)(C)[C@@H](O)[C@@H](Cc1ccc(Cl)cc1)n1cncn1 (racemic) [Paclobutrazole, (2RS,3RS)-1-(4-chlorophenyl)-4,4-dimethyl-2-(1H-1,2,4-triazol-1-yl)-pentan-3-ol]
Observed PGR in % (% Cobs) (Rye; Paclobutrazole 25 mg/L): 25%
Observed PGR in % (% Cobs) (Rye; Paclobutrazole 50 mg/L): 40%
Observed PGR in % (% Cobs) (Oilseed Rape; Paclobutrazole 12.5 mg/L): 40%
Observed PGR in % (% Cobs) (Oilseed Rape; Paclobutrazole 25 mg/L): 50%
Observed PGR in % (% Cobs) (Oilseed Rape; Paclobutrazole 50 mg/L): 55%
Observed PGR in % (% Cobs) (Soybean; Paclobutrazole 25 mg/L): 30%
Observed PGR in % (% Cobs) (Soybean; Paclobutrazole 50 mg/L): 50%
Observed PGR in % (% Cobs) (Oat; Paclobutrazole 25 mg/L): 30%
Observed PGR in % (% Cobs) (Oat; Paclobutrazole 50 mg/L): 40%
Observed PGR in % (% Cobs) (Summer rape “Hybridol”; Paclobutrazole 31.3 g a.i./ha): 17%
Observed PGR in % (% Cobs) (Summer rape “Hybridol”; Paclobutrazole 62.5 g a.i./ha): 23%
Observed PGR in % (% Cobs) (Wheat; Paclobutrazole 12.5 mg/L): 20%
Observed PGR in % (% Cobs) (Wheat; Paclobutrazole 25 mg/L): 25%
Observed PGR in % (% Cobs) (Wheat; Paclobutrazole 50 mg/L): 40%
Observed PGR in % (% Cobs) (Barley; Paclobutrazole 12.5 mg/L): 0%
Observed PGR in % (% Cobs) (Barley; Paclobutrazole 25 mg/L): 10%
Observed PGR in % (% Cobs) (Barley; Paclobutrazole 50 mg/L): 30%
Observed PGR in % (% Cobs) ([1]; Paclobutrazole 31.3 g a.i./ha): 30%
Observed PGR in % (% Cobs) ([1]; Paclobutrazole 62.5 g a.i./ha): 33%
Observed PGR in % (% Cobs) (Triticale; Paclobutrazole 25 mg/L): 10%
Observed PGR in % (% Cobs) (Triticale; Paclobutrazole 50 mg/L): 30%

CC1COC(Cn2cncn2)(c2ccc(Oc3ccc(Cl)cc3)cc2Cl)O1 (stereo not drawn) [Difenoconazole, 1-[2-[2-chloro-4-(4-chlorophenoxy)phenyl]-4-methyl-1,3-dioxolan-2-ylmethyl]-1H-1,2,4-triazole]
Observed PGR in % (% Cobs) (Rye; Difenoconazole 50 mg/L): 0%
Observed PGR in % (% Cobs) (Rye; Difenoconazole 100 mg/L): 0%
Observed PGR in % (% Cobs) (Oilseed Rape; Difenoconazole 25 mg/L): 0%
Observed PGR in % (% Cobs) (Oilseed Rape; Difenoconazole 50 mg/L): 0%
Observed PGR in % (% Cobs) (Oilseed Rape; Difenoconazole 100 mg/L): 0%
Observed PGR in % (% Cobs) (Soybean; Difenoconazole 50 mg/L): 0%
Observed PGR in % (% Cobs) (Soybean; Difenoconazole 100 mg/L): 0%
Observed PGR in % (% Cobs) (Oat; Difenoconazole 50 mg/L): 0%
Observed PGR in % (% Cobs) (Oat; Difenoconazole 100 mg/L): 0%
Observed PGR in % (% Cobs) (Summer rape “Hybridol”; Difenoconazole 62.5 g a.i./ha): 0%
Observed PGR in % (% Cobs) (Summer rape “Hybridol”; Difenoconazole 125 g a.i./ha): 0%
Observed PGR in % (% Cobs) (Wheat; Difenoconazole 25 mg/L): 0%
Observed PGR in % (% Cobs) (Wheat; Difenoconazole 50 mg/L): 0%
Observed PGR in % (% Cobs) (Wheat; Difenoconazole 100 mg/L): 0%
Observed PGR in % (% Cobs) (Barley; Difenoconazole 25 mg/L): 0%
Observed PGR in % (% Cobs) (Barley; Difenoconazole 50 mg/L): 0%
Observed PGR in % (% Cobs) (Barley; Difenoconazole 100 mg/L): 0%
Observed PGR in % (% Cobs) ([1]; Difenoconazole 62.5 g a.i./ha): 0%
Observed PGR in % (% Cobs) ([1]; Difenoconazole 125 g a.i./ha): 0%
Observed PGR in % (% Cobs) (Triticale; Difenoconazole 50 mg/L): 0%
Observed PGR in % (% Cobs) (Triticale; Difenoconazole 100 mg/L): 0%
